The values below come from patent publication US20230027985A1, “SUBSTITUTED HYDANTOINAMIDES AS ADAMTS7 ANTAGONISTS” (Bayer Aktiengesellschaft, priority 2019, published 2023).

Experiment [1] deals with T1, Purified recombinant ADAMTS-7 (rat prodomain/human catalytic domain, SEQ ID No. 01 or 02) (Homo sapiens, UniProt Q9UKP4).
T1 construct: rat ADAMTS-7 signal peptide + prodomain (rat 1-217, Q1EHB3) (N); 2xStrep tag (C); 6xHis tag (C); made in house; host or cells: Expi293 cells
T1 sequence (Q9UKP4 237-537): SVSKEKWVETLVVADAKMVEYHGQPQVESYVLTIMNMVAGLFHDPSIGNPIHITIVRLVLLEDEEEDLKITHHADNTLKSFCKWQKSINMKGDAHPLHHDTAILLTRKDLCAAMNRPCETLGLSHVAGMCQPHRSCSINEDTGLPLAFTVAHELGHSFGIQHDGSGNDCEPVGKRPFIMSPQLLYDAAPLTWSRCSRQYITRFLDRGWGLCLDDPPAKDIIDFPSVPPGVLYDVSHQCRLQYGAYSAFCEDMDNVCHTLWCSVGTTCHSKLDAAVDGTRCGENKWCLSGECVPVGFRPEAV
Put plainly: Assay for ADAMTS-7 enzymatic activity (FRET substrate cleavage). Type of experiment: biochemical. The settings on record: FRET substrate SEQ ID No. 11, 120 min at 32° C.; read-out: ADAMTS7-IC50. In short, it runs like this:
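IC50 values were fitted from percent inhibition across test-compound concentrations. Fluorescence gain (ex 485, em 520 nm) reports cleavage of a thrombospondin-1 (275-289) FRET peptide with QXL520 quencher, after 120 min at 32 °C. The enzyme, about 20 nM, was in HEPES pH 8.0 buffer with NaCl, CaCl2, ZnCl2 and Brij.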

The target in experiment [2] is T2, ADAMTS4 (Homo sapiens, UniProt O75173).
T2 construct: purchased R&D 4307-AD
T2 sequence (O75173 213-685 limits assumed): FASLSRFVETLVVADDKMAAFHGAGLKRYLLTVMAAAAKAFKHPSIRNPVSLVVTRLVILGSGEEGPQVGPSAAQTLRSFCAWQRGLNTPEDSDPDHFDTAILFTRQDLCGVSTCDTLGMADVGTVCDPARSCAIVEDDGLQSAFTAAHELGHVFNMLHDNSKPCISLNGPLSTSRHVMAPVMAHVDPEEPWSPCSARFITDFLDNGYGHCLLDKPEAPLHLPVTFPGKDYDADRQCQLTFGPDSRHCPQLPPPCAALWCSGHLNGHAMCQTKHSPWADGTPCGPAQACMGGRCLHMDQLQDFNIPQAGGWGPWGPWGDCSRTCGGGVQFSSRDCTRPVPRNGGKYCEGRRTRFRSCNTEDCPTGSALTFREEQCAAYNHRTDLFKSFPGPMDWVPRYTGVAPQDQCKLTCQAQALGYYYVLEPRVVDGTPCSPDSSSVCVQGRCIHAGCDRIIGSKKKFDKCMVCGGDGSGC
Put plainly: Selectivity assay for ADAMTS-7 modulators (FRET), ADAMTS4. Type of experiment: biochemical. As to conditions: 50 nM enzyme (R&D 4307-AD), 1 μM Dabcyl/Edans FRET substrate, 120 min at 32° C. In short, it runs like this: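 Enzyme in 50 mM Tris pH 7.5, 150 mM NaCl, 10 mM CaCl2, 0.05% Brij, preincubated with compound in DMSO; reaction started with FRET substrate. Fluorescence increase read after 120 min at 32° C; IC50 from percent inhibition versus compound concentration.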

For the compound `Cc1cccc(-n2ncc(C(=O)NC[C@@]3(C4CC4)NC(=O)NC3=O)n2)c1` [Example 18, N-{[(4R)-4-cyclopropyl-2,5-dioxoimidazolidin-4-yl]methyl}-2-(3-methylphenyl)-2H-1,2,3-triazole-4-carboxamide], the IC50 (as a rule, the concentration at which inhibition is half-maximal) in experiment [1] came to 170 nM; in experiment [2], 2200 nM.

`O=C1NC(=O)C(CNC(=O)c2cnn(-c3ccccc3)n2)(c2ccccn2)N1` (racemic) [Example 20, rac-N-{[2,5-dioxo-4-(pyridin-2-yl)imidazolidin-4-yl]methyl}-2-phenyl-2H-1,2,3-triazole-4-carboxamide]: the IC50 in experiment [1] worked out at 26 nM; in experiment [2], 4800 nM.

As for “ent-N-({4-[1-(difluoromethyl)-1H-pyrazol-5-yl]-2,5-dioxoimidazolidin-4-yl}methyl)-2-(4-fluorophenyl)-2H-1,2,3-triazole-4-carboxamide [Example 129]”, the IC50 in experiment [1] stood at 18 nM; in experiment [2], 1700 nM.

As to `O=C1NC(=O)[C@](CNC(=O)c2cnn(-c3ccc(Br)cc3)n2)(C2CC2)N1` [Example 33, 2-(4-bromophenyl)-N-{[(4R)-4-cyclopropyl-2,5-dioxoimidazolidin-4-yl]methyl}-2H-1,2,3-triazole-4-carboxamide], the results for the IC50 in experiment [1] and in experiment [2] were 58 nM and 1400 nM, respectively.

Take `CC(C)(C)C1(CNC(=O)c2cnn(-c3ccc(F)cc3)n2)NC(=O)NC1=O` (racemic) [Example 63, rac-N-[(4-tert-butyl-2,5-dioxoimidazolidin-4-yl)methyl]-2-(4-fluorophenyl)-2H-1,2,3-triazole-4-carboxamide]: the IC50 is 69 nM in experiment [1] and 6000 nM in experiment [2].

As to `O=C1NC(=O)[C@](CNC(=O)c2cnn(-c3ccc(Cl)c(Cl)c3)n2)(C2CC2)N1` [Example 32, N-{[(4R)-4-cyclopropyl-2,5-dioxoimidazolidin-4-yl]methyl}-2-(3,4-dichlorophenyl)-2H-1,2,3-triazole-4-carboxamide], the concentration for half-maximal inhibition (IC50) in experiment [1] worked out at 35 nM; in experiment [2], 910 nM.

In the case of `O=C1NC(=O)C(CNC(=O)c2cnn(-c3ccc(Cl)c(F)c3)n2)(c2nccs2)N1` (racemic) [Example 109, rac-2-(4-chloro-3-fluorophenyl)-N-{[2,5-dioxo-4-(1,3-thiazol-2-yl)imidazolidin-4-yl]methyl}-2H-1,2,3-triazole-4-carboxamide], the IC50 amounted to 19 nM in experiment [1] and 1100 nM in experiment [2].

As to `O=C1NC(=O)C(CNC(=O)c2cnn(-c3ccc(F)cc3)n2)(C2CCC2)N1` (stereo not drawn) [Example 77, ent-N-[(4-cyclobutyl-2,5-dioxoimidazolidin-4-yl)methyl]-2-(4-fluorophenyl)-2H-1,2,3-triazole-4-carboxamide], the 50% inhibitory concentration (IC50) was found to be 24 nM in experiment [1] and 4380 nM in experiment [2].

Turning to `CCCCC1(CNC(=O)c2cnn(-c3ccc(F)cc3)n2)NC(=O)NC1=O` (stereo not drawn) [Example 82], the results for the IC50 in experiment [1] and in experiment [2] were 48 nM and 3100 nM, respectively.
